For 26 compounds, IC50 results are on record in US20220267300A1 (NodThera Limited, priority 2019, published 2022).

As usually defined, the IC50 is the concentration needed to halve the response being measured.

Bounds are passed on as bounds.

The test system of this experiment is IL-1β release upon NLRP3 activation in peripheral blood mononuclear cells (PBMC). The experiment in a line: PBMC IC50 determination assay (inhibition of IL-1β release). In kind it is cell-based. The conditions noted are these: Homo sapiens; IL-1β release from LPS-primed PBMC stimulated with ATP (5 mM) or nigericin (10 μM); ELISA or HTRF; corresponding sodium salts evaluated. The procedure:
The compounds of the present disclosure were tested for their inhibitory activity against IL-1β release upon NLRP3 activation in peripheral blood mononuclear cells (PBMC).
Protocol A. PBMC were isolated from buffy coats by density gradient centrifugation on Histopaque-1077 (Sigma, cat no. 10771). Isolated cells were seeded into the wells of a 96-well plate and incubated for 3 h with lipopolysaccharide (LPS). Following medium exchange, the compounds of the present disclosure were added (a single compound per well) and the cells were incubated for 30 min. Next, the cells were stimulated either with ATP (5 mM) or nigericin (10 μM) for 1 h and the cell culture media from the wells were collected for further analysis.
The release of IL-1β into the media was determined by a quantitative detection of IL-1β in the media using an IL-1β enzyme-linked immunosorbent assay (ELISA) Ready-SET-Go!, eBioscience cat. No. 88-7261-88. Briefly, in a first step, high affinity binding plates (Corning, Costar 9018 or NUNC Maxisorp Cat No. 44-2404) were coated overnight at 4° C. with specific capture antibody included in the kit (anti-human IL-1β ref. 14-7018-68). Subsequently, plates were blocked with blocking buffer for 1 h at room temperature (rt) and after washing with a buffer (PBS with 0.05% Tween-20) incubated with protein standard and culture media. After 2 h of incubation at rt, plates were washed and incubated with biotinylated detection antibody included in the kit (anti-human IL-1β Biotin ref. 33-7110-68) for 1 h at rt. Plates were washed and incubated with HRP-streptavidin for 30 min at rt and washed again. The signal was developed after addition of 3,3′,5,5′-tetramethylbenzidine-peroxidase (TMB) until colour appeared and the reaction was stopped by 2 M H2SO4. A microplate spectrophotometer (BioTek) was used to detect signals with 450 nm. The detection range of IL-1β ELISA was 2-150 ng/ml.
Protocol B. PBMC were isolated from buffy coats by density gradient centrifugation on Histopaque-1077 (Sigma, cat no. 10771). Isolated cells were seeded into the wells (280,000 cells/well) of a 96-well plate and incubated for 3 h with lipopolysaccharide (LPS, 1 μg/ml diluted 1000× from a 1 mg/ml stock solution). The compounds of the present disclosure were added (a single compound per well) and the cells were incubated for 30 min. Next, the cells were stimulated with ATP (5 mM final concentration diluted 20× from a 100 mM stock solution) for 1 h and the cell culture media from the wells were collected for further analysis.
The release of IL-1β into the media was determined by quantitative detection of IL-1β in the media using HTRF®, CisBio cat. No. 62HIL1BPEH. Briefly, cell culture supernatant were dispensed directly into the assay plate containing antibodies labelled with the HTRF® donor and acceptor. A microplate spectrophotometer (BMG) was used to detect signals at 655 nm and 620 nm. The detection range of IL-1β HTRF® was 39-6500 pg/ml.
With `CN1CCC[C@H]1CN(c1cnn(C)c1)S(=O)(=O)NC(=O)Cc1cc(Cl)cc(C(C)(C)C)c1` (stereo in doubt) [Example 56], the IC50 was not below 50 µM. In the case of `CC(C)c1cc(F)cc(C(C)C)c1CC(=O)NS(=O)(=O)N(c1cnn(C)c1)C1CCCN(C)C1` (centres unmarked) [Example 1, 2-[4-Fluoro-2,6-bis(propan-2-yl)phenyl]-N-[(1-methyl-1H-pyrazol-4-yl)(1-methylpiperidin-3-yl)sulfamoyl]acetamide], the concentration for half-maximal inhibition (IC50) was 10 to 50 µM. With `Cc1cc(CC(=O)NS(=O)(=O)N(c2cnn(C)c2)C2CCCN(C)C2)cc(C(F)(F)F)c1` (centres unmarked) [Example 2, N-[(1-Methyl-1H-pyrazol-4-yl)(1-methylpiperidin-3-yl)sulfamoyl]-2-[3-methyl-5-(trifluoromethyl)phenyl]acetamide], the IC50 lay within 10 to 50 µM.

On to `CC(C)c1cc(CC(=O)NS(=O)(=O)N(c2cnn(C)c2)C2CCCN(C)C2)cc(C(C)C)c1` (centres unmarked) [Example 3], for which the IC50 fell in the range of 10 to 50 µM.

Turning to `CN1CCCC(N(c2cnn(C)c2)S(=O)(=O)NC(=O)Cc2cc(Cl)cc(C(F)(F)F)c2)C1` (centres unmarked) [Example 4, 2-[3-Chloro-5-(trifluoromethyl)phenyl]-N-[(1-methyl-1H-pyrazol-4-yl)(1-methylpiperidin-3-yl)sulfamoyl]acetamide], the IC50 was in the range of 10 to 50 µM. As to `CC(C)c1cc(CC(=O)NS(=O)(=O)N(C[C@@H]2CCCN2C)c2cnn(C)c2)cc(C(C)C)c1` [Example 5, 2-[3,5-Bis(propan-2-yl)phenyl]-N-[(1-methyl-1H-pyrazol-4-yl)({[(2S)-1-methylpyrrolidin-2-yl]methyl})sulfamoyl]acetamide], the IC50 was less than 1 µM.

For `CN1CCCC(N(c2cnn(C)c2)S(=O)(=O)NC(=O)Cc2cc(C(F)(F)F)cc(C(F)(F)F)c2)C1` (centres unmarked) [Example 6, 2-[3,5-Bis(trifluoromethyl)phenyl]-N-[(1-methyl-1H-pyrazol-4-yl)(1-methylpiperidin-3-yl)sulfamoyl]acetamide], the IC50 was less than 1 µM. `Cc1noc(N(C2CCCN(C)C2)S(=O)(=O)NC(=O)Cc2cc(C(C)C)cc(C(C)C)c2)c1C` (centres unmarked) [Example 7, 2-[3,5-Bis(propan-2-yl)phenyl]-N-[(3,4-dimethyl-1,2-oxazol-5-yl)(1-methylpiperidin-3-yl)sulfamoyl]acetamide]: the IC50 was less than 1 µM.

Consider `CC(C)c1cc(Cl)cc(CC(=O)NS(=O)(=O)N(C[C@@H]2CCCN2C)c2cnn(C)c2)c1` [Example 8, 2-[3-Chloro-5-(propan-2-yl)phenyl]-N-[(1-methyl-1H-pyrazol-4-yl)({[(2S)-1-methylpyrrolidin-2-yl]methyl})sulfamoyl]acetamide], for which the IC50 fell in the range of 1 to 3 µM.

With `CC(C)c1cc(CC(=O)NS(=O)(=O)N(C[C@@H]2CCCN2C)c2cnn(C)c2)cc(C(C)C)c1F` [Example 9, 2-[4-Fluoro-3,5-bis(propan-2-yl)phenyl]-N-[(1-methyl-1H-pyrazol-4-yl)({[(2S)-1-methylpyrrolidin-2-yl]methyl})sulfamoyl]acetamide], the IC50 was 10 to 50 µM.

Take `CC(C)c1cc(CC(=O)NS(=O)(=O)N(C[C@@H]2CCCN2C)c2cnn(C)c2)cc(C(F)(F)F)c1` [Example 10, N-[(1-Methyl-1H-pyrazol-4-yl)({[(2S)-1-methylpyrrolidin-2-yl]methyl})-sulfamoyl]-2-[3-(propan-2-yl)-5-(trifluoromethyl)phenyl]acetamide]: the IC50 lay in the range of 3 to 10 µM. As for `CN1CCC[C@H]1CN(c1cnn(C)c1)S(=O)(=O)NC(=O)Cc1c2c(cc3c1CCC3)CCC2` [Example 11, 2-(1,2,3,5,6,7-Hexahydro-s-indacen-4-yl)-N-[(1-methyl-1H-pyrazol-4-yl)({[(2S)-1-methylpyrrolidin-2-yl]methyl})sulfamoyl]acetamide], the figure is less than 1 µM; as for `CC(C)c1ccc(Cl)c(C(C)C)c1CC(=O)NS(=O)(=O)N(C[C@@H]1CCCN1C)c1cnn(C)c1` [Example 12, 2-[3-Chloro-2,6-bis(propan-2-yl)phenyl]-N-[(1-methyl-1H-pyrazol-4-yl)({[(2S)-1-methylpyrrolidin-2-yl]methyl})sulfamoyl]acetamide], 3 to 10 µM; as for `CN1CCCC(N(c2cnn(C)c2)S(N)(=O)=NC(=O)Cc2c3c(cc4c2CCC4)CCC3)C1` (centres unmarked) [Example 13, N-{Amino[(1-methyl-1H-pyrazol-4-yl)(1-methylpiperidin-3-yl)amino]oxo-lambda6-sulfanylidene}-2-(1,2,3,5,6,7-hexahydro-s-indacen-4-yl)acetamide], 3 to 10 µM. For the compound `CC(C)c1cc(CC(=O)NS(=O)(=O)N(c2cnn(C)c2)C2CCCN(C)C2)c(C(C)C)s1` (centres unmarked) [Example 14, 2-[2,5-Bis(propan-2-yl)thiophen-3-yl]-N-[(1-methyl-1H-pyrazol-4-yl)(1-methylpiperidin-3-yl)sulfamoyl]acetamide], the IC50 is less than 1 µM. Turning to `CC(C)c1cc(CC(=O)N=S(N)(=O)N(c2cnn(C)c2)C2CCCN(C)C2)c(C(C)C)s1` (centres unmarked) [Example 15, N-{Amino[(1-methyl-1H-pyrazol-4-yl)(1-methylpiperidin-3-yl)amino]oxo-lambda6-sulfanylidene}-2-[2,5-bis(propan-2-yl)thiophen-3-yl]acetamide], the IC50 lay within 10 to 50 µM.

As for `CCc1cc(CC(=O)NS(=O)(=O)N(c2cnn(C)c2)C2CCCN(C)C2)cc(C(F)(F)F)c1` (centres unmarked) [Example 16, 2-[3-Ethyl-5-(trifluoromethyl)phenyl]-N-[(1-methyl-1H-pyrazol-4-yl)(1-methylpiperidin-3-yl)sulfamoyl]acetamide], the IC50 was in the range of 3 to 10 µM. For `CN1CCCC(N(c2cnn(C)c2)S(=O)(=O)NC(=O)Cc2c3c(cc4c2CCC4)CCC3)C1` (centres unmarked) [Example 17, 2-(1,2,3,5,6,7-Hexahydro-s-indacen-4-yl)-N-[(1-methyl-1H-pyrazol-4-yl)(1-methylpiperidin-3-yl)sulfamoyl]acetamide], the IC50 is less than 1 µM. As for `CN(C)CCN(c1cnn(C)c1)S(=O)(=O)NC(=O)Cc1c2c(cc3c1CCC3)CCC2` [Example 18, N-{[2-(Dimethylamino)ethyl](1-methyl-1H-pyrazol-4-yl)sulfamoyl}-2-(1,2,3,5,6,7-hexahydro-s-indacen-4-yl)acetamide], the IC50 fell in the range of 1 to 3 µM. In the case of `Cn1cc(N(C2CCCN(C(=O)OCc3ccccc3)C2)S(=O)(=O)NC(=O)Cc2c3c(cc4c2CCC4)CCC3)cn1` (centres unmarked) [Example 19, Benzyl 3-({[2-(1,2,3,5,6,7-hexahydro-s-indacen-4-yl)acetamido]sulfonyl}(1-methyl-1H-pyrazol-4-yl)amino)piperidine-1-carboxylate], the IC50 was 3 to 10 µM. As for `Cn1cc(N(C2CCCNC2)S(=O)(=O)NC(=O)Cc2c3c(cc4c2CCC4)CCC3)cn1` (centres unmarked) [Example 20, 2-(1,2,3,5,6,7-Hexahydro-s-indacen-4-yl)-N-[(1-methyl-1H-pyrazol-4-yl)(piperidin-3-yl)sulfamoyl]acetamide], the figure is 1 to 3 µM; as for `Cn1cc(N(CCNC(=O)OCc2ccccc2)S(=O)(=O)NC(=O)Cc2c3c(cc4c2CCC4)CCC3)cn1` [Example 21], 3 to 10 µM; as for `Cn1cc(N(CCN)S(=O)(=O)NC(=O)Cc2c3c(cc4c2CCC4)CCC3)cn1` [Example 22, N-[(2-Aminoethyl)(1-methyl-1H-pyrazol-4-yl)sulfamoyl]-2-(1,2,3,5,6,7-hexahydro-s-indacen-4-yl)acetamide], 10 to 50 µM. Take `CC(=O)NCCN(c1cnn(C)c1)S(=O)(=O)NC(=O)Cc1c2c(cc3c1CCC3)CCC2` [Example 23, N-[(2-Acetamidoethyl)(1-methyl-1H-pyrazol-4-yl)sulfamoyl]-2-(1,2,3,5,6,7-hexahydro-s-indacen-4-yl)acetamide]: the IC50 was in the range of 10 to 50 µM. Turning to `Cn1cc(N(CCNCC(F)F)S(=O)(=O)NC(=O)Cc2c3c(cc4c2CCC4)CCC3)cn1` [Example 24, N-({2-[(2,2-Difluoroethyl)amino]ethyl}(1-methyl-1H-pyrazol-4-yl)sulfamoyl)-2-(1,2,3,5,6,7-hexahydro-s-indacen-4-yl)acetamide], the IC50 was less than 1 µM.

In the case of `CN(CCN(c1cnn(C)c1)S(=O)(=O)NC(=O)Cc1c2c(cc3c1CCC3)CCC2)C(=O)OCc1ccccc1` [Example 25, Benzyl N-[2-({[2-(1,2,3,5,6,7-hexahydro-s-indacen-4-yl)acetamido]sulfonyl}(1-methyl-1H-pyrazol-4-yl)amino)ethyl]-N-methylcarbamate], the IC50 was 3 to 10 µM.
